Reference: patent publication US12485134B2, “Use of nicotinamide riboside, nicotinic acid riboside, reduced nicotinyl riboside compounds, and nicotinyl riboside compound derivatives in formulations” (ChromaDex Inc., priority 2019, dated 2025)

Assays:
[1] = biological target: T1, Alpha-lactalbumin (Bos taurus, UniProt P00711); test: NR-Cl binding to individual whey proteins (cutoff filter method); details: 1 mmol/L each of protein and NR-Cl
T1 sequence (P00711 20-142): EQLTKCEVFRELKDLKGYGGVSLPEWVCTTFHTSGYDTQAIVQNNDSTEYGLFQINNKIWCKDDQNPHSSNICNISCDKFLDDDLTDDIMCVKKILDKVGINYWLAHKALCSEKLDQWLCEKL
Description: (§1) A. Solutions of hydrolyzed whey protein isolate (>90% protein, 2-7% degree of hydrolysis) were prepared at varying concentrations and filtered through 0.2 μm sterile filters. An aliquot of sterile nicotinamide riboside chloride (“NR-Cl,” a salt of NR, I) in water solution was spiked into the sterile whey solutions, targeting a final NR-Cl concentration of 1 mmol per liter (0.3 mg/mL). The solutions containing the mixture of hydrolyzed whey and NR-Cl were filtered through 10 kDa molecular weight cutoff centrifuge filters to remove the whey proteins (14-80 kDa) and any NR-Cl that was bound to the proteins. Any NR-Cl that was not bound to the whey proteins was recovered in the filtrate and quantitated by HPLC.
(§2) The solutions were prepared with 1 mmol/L each of protein and NR-Cl. NR-Cl binding to one or more of these individual proteins could be responsible for the enhanced stability of NR-Cl seen in hydrolyzed whey protein isolate.

[2] = biological target: Transferrin (Bos taurus, UniProt Q29443); test: as above; details: 1 mmol/L each of protein and NR-Cl
Chain of Transferrin (Q29443 20-704): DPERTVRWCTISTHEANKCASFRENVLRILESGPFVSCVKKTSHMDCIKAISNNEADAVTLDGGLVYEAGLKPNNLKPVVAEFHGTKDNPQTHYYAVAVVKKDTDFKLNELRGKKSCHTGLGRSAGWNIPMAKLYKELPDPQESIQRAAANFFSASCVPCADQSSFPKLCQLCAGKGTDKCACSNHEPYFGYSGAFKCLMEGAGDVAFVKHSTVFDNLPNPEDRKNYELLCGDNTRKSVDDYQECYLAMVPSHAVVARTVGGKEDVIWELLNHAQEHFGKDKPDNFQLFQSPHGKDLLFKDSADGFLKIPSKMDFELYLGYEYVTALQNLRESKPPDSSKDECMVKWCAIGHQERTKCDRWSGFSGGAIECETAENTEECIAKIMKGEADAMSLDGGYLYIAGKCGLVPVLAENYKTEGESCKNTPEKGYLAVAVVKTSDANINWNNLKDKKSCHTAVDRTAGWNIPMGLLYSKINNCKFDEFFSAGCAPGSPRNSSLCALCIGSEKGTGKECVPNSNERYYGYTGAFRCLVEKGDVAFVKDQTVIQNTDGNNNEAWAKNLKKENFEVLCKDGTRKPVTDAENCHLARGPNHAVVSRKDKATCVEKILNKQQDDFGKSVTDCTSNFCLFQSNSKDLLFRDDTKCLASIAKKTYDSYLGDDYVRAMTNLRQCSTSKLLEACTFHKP
Description: as §1, §2

[3] = biological target: T2, Beta-lactoglobulin (Bos taurus, UniProt P02754); test: as above; details: 1 mmol/L each of protein and NR-Cl
T2 sequence (P02754 17-178): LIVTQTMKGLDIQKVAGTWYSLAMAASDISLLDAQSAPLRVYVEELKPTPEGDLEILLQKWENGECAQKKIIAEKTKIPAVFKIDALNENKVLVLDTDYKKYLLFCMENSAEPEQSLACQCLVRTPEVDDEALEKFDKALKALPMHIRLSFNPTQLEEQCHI
Description: as §1, §2

[4] = biological target: Albumin (Bos taurus, UniProt P02769); test: as above; details: 1 mmol/L each of protein and NR-Cl
Chain of Albumin (P02769 25-607): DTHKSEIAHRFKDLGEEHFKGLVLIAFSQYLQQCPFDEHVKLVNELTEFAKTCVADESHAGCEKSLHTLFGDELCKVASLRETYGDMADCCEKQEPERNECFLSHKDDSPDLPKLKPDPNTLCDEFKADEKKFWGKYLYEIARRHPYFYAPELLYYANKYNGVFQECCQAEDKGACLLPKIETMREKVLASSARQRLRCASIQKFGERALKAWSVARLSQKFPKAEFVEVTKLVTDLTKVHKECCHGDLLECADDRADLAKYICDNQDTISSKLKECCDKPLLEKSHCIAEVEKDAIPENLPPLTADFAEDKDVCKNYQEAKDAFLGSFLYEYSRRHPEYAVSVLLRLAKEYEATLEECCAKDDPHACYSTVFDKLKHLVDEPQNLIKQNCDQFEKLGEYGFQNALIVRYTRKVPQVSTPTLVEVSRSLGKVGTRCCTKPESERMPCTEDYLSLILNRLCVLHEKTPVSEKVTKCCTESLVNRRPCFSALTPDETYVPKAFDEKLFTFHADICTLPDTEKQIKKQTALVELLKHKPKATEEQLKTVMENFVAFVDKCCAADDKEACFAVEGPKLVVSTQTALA
Description: as §1, §2

[5] = biological target: Lactoferrin (Bos taurus, UniProt P24627); test: as above; details: 1 mmol/L each of protein and NR-Cl
Chain of Lactoferrin (P24627 20-708): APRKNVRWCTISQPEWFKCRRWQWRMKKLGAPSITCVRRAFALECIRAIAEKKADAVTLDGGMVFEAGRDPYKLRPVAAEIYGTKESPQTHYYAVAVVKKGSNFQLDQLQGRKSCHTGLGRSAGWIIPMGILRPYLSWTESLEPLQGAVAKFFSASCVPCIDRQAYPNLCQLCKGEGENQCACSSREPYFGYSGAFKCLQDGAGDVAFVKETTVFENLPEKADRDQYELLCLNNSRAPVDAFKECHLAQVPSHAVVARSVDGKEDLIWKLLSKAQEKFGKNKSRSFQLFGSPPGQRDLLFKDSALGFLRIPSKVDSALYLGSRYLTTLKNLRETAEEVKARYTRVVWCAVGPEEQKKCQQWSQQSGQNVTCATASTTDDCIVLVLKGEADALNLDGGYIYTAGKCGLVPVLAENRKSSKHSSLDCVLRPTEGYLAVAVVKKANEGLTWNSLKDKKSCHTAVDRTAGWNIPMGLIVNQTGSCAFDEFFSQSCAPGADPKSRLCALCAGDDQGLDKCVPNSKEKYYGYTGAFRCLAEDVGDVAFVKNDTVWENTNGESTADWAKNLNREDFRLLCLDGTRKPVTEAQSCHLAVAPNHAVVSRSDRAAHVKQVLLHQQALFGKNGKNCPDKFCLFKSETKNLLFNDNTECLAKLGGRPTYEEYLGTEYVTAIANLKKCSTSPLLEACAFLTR
Description: as §1, §2

[6] = Stability of NR-Cl in whey protein isolate solutions (% nicotinamide degradant, vs control of NR-Cl in water only); format: physicochemical; details: for increase in nicotinamide: after 1 day at refrigerated conditions
Description: as §1
(§3) The solutions of hydrolyzed whey protein isolate and NR-Cl were stored at ambient and refrigerated conditions and analyzed at various timepoints for NR-Cl protein binding and stability.
(§4) A study measuring the stability of NR-Cl in hydrolyzed and non-hydrolyzed whey protein was conducted with 2 mmol/L NR-Cl (0.6 mg/mL) and 20 mg/mL protein (33.3:1 wt:wt protein:NR-Cl). […] (See Table 5).

[7] = tested on: soy isolate proteins; test: WaterLOGSY NMR binding of NR-Cl; details: native vs denatured, pH 7.0
Description: WaterLOGSY is a sensitive ligand-observed NMR experiment designed for the screening of protein ligands from a mixture of potential binders. […] The experiment relies on fast dissociation of bound ligands to carry into the free state magnetisation originating from irradiated water that has been transmitted via the protein complex.
NMR samples for WaterLOGSY were prepared as follows. Ligand-detect WaterLOGSY experiments were carried at 600 MHz with 5-mm cryoprobe and using 5-mm NMR tubes. Each NMR sample for WaterLOGSY contained ˜0.05 mg (˜0.35 mM), using unlabeled ligand NR-Cl (“NR”), in a NMR buffer containing ˜0.5 mL 90% H2O/10% ^2H2O at pH 7.0 with or without the milk and soy protein mix (compared to the WaterLOGSY of NR as a negative control). Protein was added as a powder with a minimal 15 to 50 μM concentration. Typically, the final NMR sample of protein-compound mixtures had >20-fold higher compound concentration of ligand compared to that of the protein. Denatured samples were prepared by simply heating (80° C. for 15-20 mins) the aqueous (5-10% ^2H2O) protein mixture (in absence of NR).

[8] = tested on: non-hydrolyzed whey protein; test: NR-Cl binding to non-hydrolyzed whey protein isolate (cutoff filter method); details: Non-Hydrolyzed Whey Protein Isolate 20 mg/mL, 2 mmol/L NR-Cl (33.3:1 wt:wt)
Description: as §1, §4

[9] = tested on: hydrolyzed whey protein isolate; test: NR-Cl binding to hydrolyzed whey protein isolate (10 kDa cutoff filtration, unbound NR-Cl in filtrate by HPLC)
Description: as §1, §3, §4

[10] = Hydrolyzed Whey Protein Isolate 20 mg/mL, 2 mmol/L NR-Cl (33.3:1 wt:wt), 0 days refrigerated
[11] = Hydrolyzed Whey Protein Isolate 20 mg/mL, 2 mmol/L NR-Cl (33.3:1 wt:wt), 1 day refrigerated
[12] = hydrolyzed whey:NR-Cl 18.3:1 (wt:wt), 0 days ambient
[13] = hydrolyzed whey:NR-Cl 18.3:1 (wt:wt), 0 days refrigerated
[14] = hydrolyzed whey:NR-Cl 18.3:1 (wt:wt), 3 days ambient
[15] = hydrolyzed whey:NR-Cl 18.3:1 (wt:wt), 5 days ambient
[16] = hydrolyzed whey:NR-Cl 18.3:1 (wt:wt), 7 days ambient
[17] = hydrolyzed whey:NR-Cl 18.3:1 (wt:wt), 30 days refrigerated
[18] = hydrolyzed whey:NR-Cl 37:1 (wt:wt), 0 days ambient
[19] = hydrolyzed whey:NR-Cl 37:1 (wt:wt), 0 days refrigerated
[20] = hydrolyzed whey:NR-Cl 37:1 (wt:wt), 3 days ambient
[21] = hydrolyzed whey:NR-Cl 37:1 (wt:wt), 5 days ambient
[22] = hydrolyzed whey:NR-Cl 37:1 (wt:wt), 7 days ambient
[23] = hydrolyzed whey:NR-Cl 37:1 (wt:wt), 30 days refrigerated
[24] = hydrolyzed whey:NR-Cl 73:1 (wt:wt), 0 days ambient
[25] = hydrolyzed whey:NR-Cl 73:1 (wt:wt), 0 days refrigerated
[26] = hydrolyzed whey:NR-Cl 73:1 (wt:wt), 3 days ambient
[27] = hydrolyzed whey:NR-Cl 73:1 (wt:wt), 5 days ambient
[28] = hydrolyzed whey:NR-Cl 73:1 (wt:wt), 7 days ambient
[29] = hydrolyzed whey:NR-Cl 73:1 (wt:wt), 30 days refrigerated
[30] = hydrolyzed whey:NR-Cl 147:1 (wt:wt), 0 days ambient
[31] = hydrolyzed whey:NR-Cl 147:1 (wt:wt), 3 days ambient
[32] = hydrolyzed whey:NR-Cl 147:1 (wt:wt), 5 days ambient
[33] = hydrolyzed whey:NR-Cl 147:1 (wt:wt), 7 days ambient
[34] = hydrolyzed whey:NR-Cl 293:1 (wt:wt), 0 days ambient
[35] = hydrolyzed whey:NR-Cl 293:1 (wt:wt), 3 days ambient
[36] = hydrolyzed whey:NR-Cl 293:1 (wt:wt), 7 days ambient

## NC(=O)c1ccc[n+]([C@@H]2O[C@H](CO)[C@@H](O)[C@H]2O)c1.[Cl-] [NR-Cl, nicotinamide riboside chloride]
[1]
  % NR-Cl Bound to Protein: 62%
[2]
  % NR-Cl Bound to Protein: 15%
[3]
  % NR-Cl Bound to Protein: 66%
[4]
  % NR-Cl Bound to Protein: 47%
[5]
  % NR-Cl Bound to Protein: 28%
[6]; Control (NR-Cl in water only), 0 days ambient
  % Nicotinamide: 0.2%
[6]; Control (NR-Cl in water only), 0 days refrigerated
  % Nicotinamide: 0.2%
[6]; Control (NR-Cl in water only), 3 days ambient
  % Nicotinamide: 3.8%
[6]; Control (NR-Cl in water only), 5 days ambient
  % Nicotinamide: 4.8%
[6]; Control (NR-Cl in water only), 7 days ambient
  % Nicotinamide: 5.3%
[6]; Control (NR-Cl in water only), 30 days refrigerated
  % Nicotinamide: 2.3%
[6]; [10]
  % Nicotinamide: 0.1%
[6]; [11]
  % Nicotinamide: 0.1%
[6]; Non-Hydrolyzed Whey Protein Isolate 20 mg/mL, 2 mmol/L NR-Cl (33.3:1 wt:wt), 0 days refrigerated
  % Nicotinamide: 0.3%
[6]; Non-Hydrolyzed Whey Protein Isolate 20 mg/mL, 2 mmol/L NR-Cl (33.3:1 wt:wt), 1 day refrigerated
  % Nicotinamide: 5.4%
[6]; hydrolyzed whey solution
  increase in nicotinamide: did not show any increase
[6]; [12]
  % Nicotinamide: 0.1%
[6]; [13]
  % Nicotinamide: 0.1%
[6]; [14]
  % Nicotinamide: 2.2%
[6]; [15]
  % Nicotinamide: 3.3%
[6]; [16]
  % Nicotinamide: 3.9%
[6]; [17]
  % Nicotinamide: 1.5%
[6]; [18]
  % Nicotinamide: 0.2%
[6]; [19]
  % Nicotinamide: 0.2%
[6]; [20]
  % Nicotinamide: 2.1%
[6]; [21]
  % Nicotinamide: 3.1%
[6]; [22]
  % Nicotinamide: 3.8%
[6]; [23]
  % Nicotinamide: 1.4%
[6]; [24]
  % Nicotinamide: 0.2%
[6]; [25]
  % Nicotinamide: 0.2%
[6]; [26]
  % Nicotinamide: 2.4%
[6]; [27]
  % Nicotinamide: 3.2%
[6]; [28]
  % Nicotinamide: 4.2%
[6]; [29]
  % Nicotinamide: 1.6%
[6]; [30]
  % Nicotinamide: 0.3%
[6]; [31]
  % Nicotinamide: 2.4%
[6]; [32]
  % Nicotinamide: 3.4%
[6]; [33]
  % Nicotinamide: 4.1%
[6]; [34]
  % Nicotinamide: 0.6%
[6]; [35]
  % Nicotinamide: 2.8%
[6]; [36]
  % Nicotinamide: 4.4%
[6]; non-hydrolyzed whey solution
  increase in nicotinamide: 5%
[7]
  WaterLOGSY binding: increase in binding with NR-Cl only after denaturation
[8]; 0 days refrigerated
  % NR-Cl Bound to Protein: 49%
[8]; 1 day refrigerated
  % NR-Cl Bound to Protein: 54%
[9]; 7 days ambient, 30 days refrigerated
  fraction of NR-Cl bound to whey protein over the course of the experiments: remain stable
[9]; [10]
  % NR-Cl Bound to Protein: 55%
[9]; [11]
  % NR-Cl Bound to Protein: 56%
[9]; hydrolyzed whey protein isolate:NR-Cl 18.3:1 (wt:wt), 1 mmol/L NR-Cl
  % NR-Cl Bound to Protein: 41%
[9]; hydrolyzed whey protein isolate:NR-Cl 37:1 (wt:wt), 1 mmol/L NR-Cl
  % NR-Cl Bound to Protein: 47%
[9]; hydrolyzed whey protein isolate:NR-Cl 73:1 (wt:wt), 1 mmol/L NR-Cl
  % NR-Cl Bound to Protein: 60%
[9]; hydrolyzed whey protein isolate:NR-Cl 147:1 (wt:wt), 1 mmol/L NR-Cl
  % NR-Cl Bound to Protein: 65%
[9]; hydrolyzed whey protein isolate:NR-Cl 293:1 (wt:wt), 1 mmol/L NR-Cl
  % NR-Cl Bound to Protein: 67%
[9]; [12]
  % NR-Cl Bound to Protein: 41%
[9]; [13]
  % NR-Cl Bound to Protein: 41%
[9]; [14]
  % NR-Cl Bound to Protein: 44%
[9]; [15]
  % NR-Cl Bound to Protein: 45%
[9]; [16]
  % NR-Cl Bound to Protein: 43%
[9]; [17]
  % NR-Cl Bound to Protein: 24%
[9]; [18]
  % NR-Cl Bound to Protein: 47%
[9]; [19]
  % NR-Cl Bound to Protein: 47%
[9]; [20]
  % NR-Cl Bound to Protein: 55%
[9]; [21]
  % NR-Cl Bound to Protein: 54%
[9]; [22]
  % NR-Cl Bound to Protein: 54%
[9]; [23]
  % NR-Cl Bound to Protein: 45%
[9]; [24]
  % NR-Cl Bound to Protein: 60%
[9]; [25]
  % NR-Cl Bound to Protein: 60%
[9]; [26]
  % NR-Cl Bound to Protein: 66%
[9]; [27]
  % NR-Cl Bound to Protein: 65%
[9]; [28]
  % NR-Cl Bound to Protein: 65%
[9]; [29]
  % NR-Cl Bound to Protein: 57%
[9]; [30]
  % NR-Cl Bound to Protein: 65%
[9]; [31]
  % NR-Cl Bound to Protein: 71%
[9]; [32]
  % NR-Cl Bound to Protein: 72%
[9]; [33]
  % NR-Cl Bound to Protein: 69%
[9]; [34]
  % NR-Cl Bound to Protein: 67%
[9]; [35]
  % NR-Cl Bound to Protein: 62%
[9]; [36]
  % NR-Cl Bound to Protein: 72%
